Data: patent publication US20240166645A1, “PYRIDOPYRIMIDINONE DERIVATIVE, PREPARATION METHOD THEREFOR, AND USE THEREOF” (Wuhan Humanwell Innovative Drug Research and Development …, priority 2021, published 2024)

Columns and labels:
[1] = molecular target: CYP3A4 (Homo sapiens (Human), UniProt P08684); assay: Inhibition test on cytochrome P450 subtype CYP3A4; type: in vitro ADME; conditions: at 10 μM, compared with the control compound I
Experimental: The inhibitory potential of compounds on cytochrome P450 (CYP450) subtype CYP3A4 (two substrates of midazolam and testosterone) was detected. First, the compound to be tested was prepared into a 10 mM stock solution in DMSO solvent, and the CYP3A4 inhibitor ketoconazole was prepared as 10 mM, 2.5 mM and 2.5 mM stock solutions in DMSO solvent. The test compound and ketoconazole were diluted to 400-fold final concentration (compound: 10 μM, ketoconazole: 2.5 μM) with acetonitrile.
NADPH cofactor (10 mL of potassium phosphate buffer added with 66.7 mg NADPH) at 4-fold final concentration and substrates were prepared with potassium phosphate buffer (0.1 M, pH=7.4), with CYP3A4 substrate midazolam at a final concentration of […] and CYP3A4 substrate testosterone at a final concentration of 20 μM.
A human liver microsome solution at a concentration of 0.2 mg/mL was prepared with potassium phosphate buffer on ice. A solution of the compound to be tested and a control inhibitor (control compound) solution at 2-fold final concentration were prepared with the human liver microsome solution on ice. The test wells were added with […] of the test compound solution and the control inhibitor solution respectively, and then added with […] of the substrate for duplication. A 96-well assay plate and a NADPH solution were incubated at 37° C. for 5 min, and 15 μL of pre-heated 8 mM NADPH solution was added to the assay plate to initiate the reaction. A CYP3A4 assay plate was pre-incubated at 37° C. for 5 min. The plate was added with 120 μL of acetonitrile to terminate the reaction, and after quenching, the plate was shaken on a shaker (IKA, MTS 2/4) for 10 min (600 rpm/min), and then centrifuged for 15 min. After centrifugation, the supernatant was collected, and added with purified water in a ratio of 1:1 to perform LC-MS/MS detection. A ratio of a peak area of compound to a peak area of internal standard was obtained, and the peak area ratio of the compound was compared with the peak area ratio of the control inhibitor to calculate the inhibition rate.

[2] = system: H358 cells; assay: Inhibition of 3D cell proliferation (3D CellTiter-Glo); type: cell-based; conditions: Homo sapiens, NCI-H358, 168 h, read-out: IC50 (nM), inhibition of 3D proliferation of H358 cells, 7 days
Experimental: H358 cells were seeded in a T75 culture flask and cultured in a RPMI 1640 medium containing 10% FBS for 2 days for subsequent experiments in which the cells would be cultured or seeded on a 384-well plate.
On day 1, the cells were seeded on the 384-well plate, with 40 μL of medium added per well and serially diluted compounds or DMSO added per well, and an additional well without seeded cells but with medium was set up as a blank control. After culture at 37° C., 5% CO2 for 7 days, the plate was added with 3D CellTiter-Glo reagent (Promega, Cat. No. G9683) on day 8, shaken at 320 rpm for 20 min, and left at room temperature for 2 h. Luminescence signals were read on a multifunctional microplate reader. Cell viability inhibition rate was calculated as:
Cell viability inhibition rate=(DMSO group−test compound)/(DMSO group−blank control group)×100%
(§1) IC50 values were calculated using Graphpad 5 software.

[3] = system: ERK phosphorylation level in DLD-1 cells; assay: Inhibition of ERK phosphorylation level in DLD-1 cells (intracellular western blot); type: cell-based; conditions: Homo sapiens
Experimental: Intracellular western blot quantitative analysis was used to detect the inhibitory level of compounds on ERK phosphorylation in DLD-1 cells.
DLD-1 cells (ATCC, CCL-221) were seeded in a T75 culture flask at 2.5×10^6 cells/flask and cultured in a RPMI 1640 medium containing 10% FBS for 2 days. On day 3, the cells were seeded on a 384-well plate, and cultured overnight at 37° C., 5% CO2. After overnight culture, the plate was added with serially diluted compounds (the final content of DMSO was 0.5%), the negative group was added with DMSO, and incubated in a 37° C., 5% CO2 incubator.
The cells were fixed, washed once with PBS, treated to disrupt membranes, and blocked at room temperature for 1 h. The blocking solution was removed. The plate was added with primary antibody (CST, Cat. No. #4370S), and incubated overnight at 4° C. The plate was washed 3 times with PBST (PBS solution added with 0.05% Tween-20) and soaked for 2 min each time. The plate was added with secondary antibody (LI-COR, Cat. No. 926-32211) and incubated at room temperature in the dark. The plate was washed 3 times with PBST and soaked for 2 min each time. The plate was centrifuged at 1000 rpm for 1 min, scanned on a two-color infrared laser imaging system (Odyssey® CLX) to read the signal.
Relative signal=800-channel signal values/700-channel signal values.
Relative expression level of ERK phosphorylation=(test compound−control compound I)/(DMSO group−control compound I)
as §1

[4] = molecular target: KRAS G12C-SOS1 (Homo sapiens (Human), UniProt Q07889); assay: Inhibition test of compounds on KRAS G12C::SOS1 binding; conditions: GST-KRAS G12C, His-SOS1
Sequence of KRAS G12C-SOS1 (Q07889 whole entry, stated change not applied): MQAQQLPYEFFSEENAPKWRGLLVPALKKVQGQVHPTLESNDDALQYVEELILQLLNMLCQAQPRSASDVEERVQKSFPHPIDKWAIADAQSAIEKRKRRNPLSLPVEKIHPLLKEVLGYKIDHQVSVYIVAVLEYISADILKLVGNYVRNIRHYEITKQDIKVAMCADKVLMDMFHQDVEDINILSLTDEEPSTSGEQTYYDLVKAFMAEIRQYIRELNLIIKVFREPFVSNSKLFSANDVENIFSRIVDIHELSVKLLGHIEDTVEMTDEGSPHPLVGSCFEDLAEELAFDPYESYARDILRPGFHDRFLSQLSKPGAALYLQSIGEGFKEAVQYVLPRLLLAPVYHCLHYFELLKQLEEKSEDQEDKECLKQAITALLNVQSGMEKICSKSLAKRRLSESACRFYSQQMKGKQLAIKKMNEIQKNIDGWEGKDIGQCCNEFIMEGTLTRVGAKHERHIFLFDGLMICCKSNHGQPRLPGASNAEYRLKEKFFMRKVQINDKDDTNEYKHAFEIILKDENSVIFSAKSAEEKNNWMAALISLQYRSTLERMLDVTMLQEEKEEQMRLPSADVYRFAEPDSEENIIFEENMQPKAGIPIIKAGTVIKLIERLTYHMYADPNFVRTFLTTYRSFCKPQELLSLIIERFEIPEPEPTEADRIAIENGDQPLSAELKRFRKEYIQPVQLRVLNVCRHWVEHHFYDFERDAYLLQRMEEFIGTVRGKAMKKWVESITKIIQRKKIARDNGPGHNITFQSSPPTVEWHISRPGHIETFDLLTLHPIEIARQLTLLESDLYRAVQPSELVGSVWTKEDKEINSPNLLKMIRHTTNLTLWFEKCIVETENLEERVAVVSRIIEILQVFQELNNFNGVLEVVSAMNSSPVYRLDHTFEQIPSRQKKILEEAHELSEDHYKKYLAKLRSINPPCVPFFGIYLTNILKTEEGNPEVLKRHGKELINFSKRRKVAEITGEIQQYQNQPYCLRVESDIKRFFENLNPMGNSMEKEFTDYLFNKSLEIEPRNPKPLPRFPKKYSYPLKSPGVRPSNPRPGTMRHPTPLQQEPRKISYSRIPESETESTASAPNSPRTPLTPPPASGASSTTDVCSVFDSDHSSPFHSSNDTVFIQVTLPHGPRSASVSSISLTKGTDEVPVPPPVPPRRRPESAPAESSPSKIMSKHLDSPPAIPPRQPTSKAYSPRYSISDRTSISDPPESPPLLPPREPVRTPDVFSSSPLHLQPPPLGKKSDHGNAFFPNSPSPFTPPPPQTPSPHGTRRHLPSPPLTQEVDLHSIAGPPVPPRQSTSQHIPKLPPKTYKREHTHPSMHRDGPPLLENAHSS
Experimental: The compound to be tested was prepared into a 10 mM stock solution with DMSO, and the compound was serially diluted using 1× test buffer. 0.1 μL of the compound solution with different concentrations was transferred to a 384-well plate. […] 5 μL of His-SOS1 was added to the 384-well plate, centrifuged at 1000 rpm for 1 min, and incubated at room temperature for 15 min.
After incubation, 10 μL of a mixed solution of anti-6his-Tb monoclonal antibody (Cisbio, Cat. No. 61HI2TLA) and anti-GST-XL665 monoclonal antibody (Cisbio, Cat. No. 61GSTXLA) was added to the test well, centrifuged at 1000 rpm for 1 min, and incubated at room temperature for 1 h.
After incubation, the fluorescence signal ratios at 665 nm and 615 nm were read on a multifunctional microplate reader (Perkin Elmer, Envision 2104), and the IC50 values were calculated using Graphpad 5 software.

[5] = Pharmacokinetic test in mice; type: in vivo; conditions: mouse, plasma; male ICR mice, oral gavage, 10 mg/kg
Experimental: Male ICR mice (20 to 25 g) were used and fasted overnight. Three mice were taken and orally administered by gavage (10 mg/kg). Blood was collected before the administration, and at 15 min, 30 min, 1 h, 2 h, 4 h, 8 h and 24 h after the administration. 6,800 g of the blood samples were centrifuged at 2 to 8° C. for 6 min, and plasma was collected and stored at −80° C. The plasma at each time point was taken and added with an acetonitrile solution containing internal standard in 3 to 5 times the amount, vortexed and mixed for 1 min, and centrifuged at 13,000 rpm/min at 4° C. for 10 min. The supernatant was collected, added with water in 3 times the amount, and mixed. An appropriate amount of the mixture was taken for LC-MS/MS analysis. The main pharmacokinetic parameters were analyzed using WinNonlin 7.0 software with non-compartmental model.

[6] = system: Mia Paca-2 pancreatic cancer; assay: Mia Paca-2 pancreatic cancer in vivo efficacy test; parameters: species or system mice; conditions: Mia Paca-2, 0.125 mg/kg BID
Experimental: After one week of adaptive feeding of mice, Mia Paca-2 cells in a log phase were resuspended in serum-free DMEM, and then mixed with Matrigel in a ratio of 1:1.1×10^7 Mia Paca-2 cells were inoculated subcutaneously at the right flank at 100 μL per mouse, and tumor growth was observed regularly. When the tumor grew to an average volume of 150 to 200 mm^3, the mice were randomly divided into a model group and an administration group (single drug, in combination with trametinib) based on the tumor size and body weight. The tumor size and body weight were measured and recorded before and during the administration. After the treatment, the tumor size in the model group was compared with that in the administration group to determine the efficacy.

Sequence of CYP3A4 (P08684 whole entry): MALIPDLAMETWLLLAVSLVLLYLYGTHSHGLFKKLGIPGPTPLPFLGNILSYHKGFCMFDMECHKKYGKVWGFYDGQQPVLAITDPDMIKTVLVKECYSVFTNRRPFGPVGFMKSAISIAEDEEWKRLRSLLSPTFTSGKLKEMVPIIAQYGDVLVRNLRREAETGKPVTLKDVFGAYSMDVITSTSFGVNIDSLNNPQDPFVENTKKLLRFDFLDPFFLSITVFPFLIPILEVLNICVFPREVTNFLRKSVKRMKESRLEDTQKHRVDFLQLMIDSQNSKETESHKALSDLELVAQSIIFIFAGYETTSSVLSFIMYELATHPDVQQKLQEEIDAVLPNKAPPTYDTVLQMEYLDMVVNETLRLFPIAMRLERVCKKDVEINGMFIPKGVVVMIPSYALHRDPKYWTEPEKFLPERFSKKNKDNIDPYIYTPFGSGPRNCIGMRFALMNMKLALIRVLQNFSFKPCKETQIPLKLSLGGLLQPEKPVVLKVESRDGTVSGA

## Cc1nc(N[C@H](C)c2cccc(S(F)(F)(F)(F)F)c2)c2cn(C3(CF)CC3)c(=O)cc2n1 [Compound I-3, (R)-6-(1-(fluoromethyl)cyclopropyl)-2-methyl-4-((1-(3-(pentafluorosulfanyl)phenyl)ethyl)amino)pyrido[4,3-d]pyrimidin-7(6H)-one]
[1]
  inhibitory effect on CYP3A4 enzymes (in words): more significant inhibitory effect

## CC(=O)N1CCC(C)(n2cc3c(N[C@H](C)c4cccc(S(F)(F)(F)(F)F)c4)nc(C)nc3cc2=O)CC1 [Compound I-17, (R)-6-(1-acetyl-4-methylpiperidin-4-yl)-2-methyl-4-((1-(3-(pentafluorosulfanyl)phenyl)ethyl)amino)pyrido[4,3-d]pyrimidin-7(6H)-one]
[2]
  IC50: 12.1 nM
[3]
  IC50: 119 nM

## Cc1nc(N[C@H](C)c2cccc(OC(F)F)c2F)c2cn(C3(C(F)F)CC3)c(=O)cc2n1 [Compound I-12, (R)-4-((1-(3-(difluoromethoxy)-2-fluorophenyl)ethyl)amino)-6-(1-(difluoromethyl)cyclopropyl)-2-methylpyrido[4,3-d]pyrimidin-7(6H)-one]
[4]
  IC50: 22.2 nM
[3]
  IC50: 196 nM

## Cc1nc(N[C@H](C)c2cccc(S(F)(F)(F)(F)F)c2)c2cn(C3(C)CCOCC3)c(=O)cc2n1 [Compound I-21, (R)-2-methyl-6-(4-methyltetrahydro-2H-pyran-4-yl)-4-((1-(3-(pentafluorosulfanyl)phenyl)ethyl)amino)pyrido[4,3-d]pyrimidin-7(6H)-one]
[4]
  IC50: 6.9 nM
[2]
  IC50: 85.1 nM
[3]
  IC50: 141 nM

## Cc1nc(N[C@H](C)c2cccc(C(F)F)c2F)c2cn(C3(C(F)F)CC3)c(=O)cc2n1 [Control compound II, reference compound]
[5]
  AUC(0-t): 1000 ng·h/mL
  Cmax: 669 ng/mL
  Tmax: 30 min
  half-life: 57.6 min

## Cc1nc(N[C@H](C)c2cccc(S(F)(F)(F)(F)F)c2)c2cn(C3(C)CCOC3)c(=O)cc2n1 (stereo partly drawn) [Compound I-20, 2-methyl-6-(3-methyltetrahydrofuran-3-yl)-4-(((R)-1-(3-(pentafluorosulfanyl)phenyl)ethyl)amino)pyrido[4,3-d]pyrimidin-7(6H)-one]
[2]
  IC50: 31 nM
[3]
  IC50: 92 nM

## CC(=O)Nc1cccc(-n2c(=O)n(C3CC3)c(=O)c3c(Nc4ccc(I)cc4F)n(C)c(=O)c(C)c32)c1 [Trametinib, reference compound]
[6]
  Tumor weight inhibition rate (relative to the vehicle group): 80%

## Cc1nc(N[C@H](C)c2cccc(S(F)(F)(F)(F)F)c2)c2cn([C@H]3C[C@H](F)C3)c(=O)cc2n1 [Compound I-19, 6-((1R,3R)-3-fluorocyclobutyl)-2-methyl-4-(((R)-1-(3-(pentafluorosulfanyl)phenyl)ethyl)amino)pyrido[4,3-d]pyrimidin-7(6H)-one]
[4]
  IC50: 9.5 nM
[2]
  IC50: 137 nM
[3]
  IC50: 131 nM

## Cc1nc(N[C@H](C)c2cccc(S(F)(F)(F)(F)F)c2)c2cn(C3(C)CC3)c(=O)cc2n1 [Compound I-22, (R)-2-methyl-6-(1-methylcyclopropyl)-4-((1-(3-(pentafluorosulfanyl)phenyl)ethyl)amino)pyrido[4,3-d]pyrimidin-7(6H)-one]
[4]
  IC50: 21.7 nM
[2]
  IC50: 10.7 nM

## CC(=O)N1CCC(C)(n2cc3c(N[C@H](C)c4cccc(S(F)(F)(F)(F)F)c4)nc(C)nc3cc2=O)C1 (stereo partly drawn) [Compound I-18, 6-(1-acetyl-3-methylpyrrolidin-3-yl)-2-methyl-4-(((R)-1-(3-(pentafluorosulfanyl)phenyl)ethyl)amino)pyrido[4,3-d]pyrimidin-7(6H)-one]
[2]
  IC50: 9.2 nM
[3]
  IC50: 115 nM

## Cc1nc(N[C@H](C)c2cccc(S(F)(F)(F)(F)F)c2)c2cn([C@H]3C[C@](C)(O)C3)c(=O)cc2n1 [Compound I-15, 6-((1r,3R)-3-hydroxy-3-methylcyclobutyl)-2-methyl-4-(((R)-1-(3-(pentafluorosulfanyl)phenyl)ethyl)amino)pyrido[4,3-d]pyrimidin-7(6H)-one]
[4]
  IC50: 14.4 nM

## COCC1(n2cc3c(N[C@H](C)c4cccc(S(F)(F)(F)(F)F)c4)nc(C)nc3cc2=O)CC1 [Compound I-13, (R)-6-(1-(methoxymethyl)cyclopropyl)-2-methyl-4-((1-(3-(pentafluorosulfanyl)phenyl)ethyl)amino)pyrido[4,3-d]pyrimidin-7(6H)-one]
[2]
  IC50: 15.7 nM
[3]
  IC50: 109 nM

## Cc1nc(N[C@H](C)c2cccc(S(F)(F)(F)(F)F)c2)c2cn(C3CC(F)(F)C3)c(=O)cc2n1 [Compound I-16, (R)-6-(3,3-difluorocyclobutyl)-2-methyl-4-((1-(3-(pentafluorosulfanyl)phenyl)ethyl)amino)pyrido[4,3-d]pyrimidin-7(6H)-one]
[4]
  IC50: 16.1 nM
